Experimental data: patent US9186318B2, “Quinolyl-containing hydroxamic acid compound and preparation method thereof, and pharmaceutical composition containing this compound and use thereof” (Beijing Konruns Pharmaceutical Co., Ltd, priority 2011, dated 2015)

Tests used:
Assay in all cases: KinomeScan 96-kinase panel
Format in all cases: binding
Conditions in all cases: compound concentration 1000 nM
PDGFRB = PDGFRB (Homo sapiens (Human), UniProt P09619)
Excerpt: (§1) The details of the screening technology were described in Fabian, M. A. et al, Nat., Biotechnol. 2005, 23, 329 and Karaman, M. W. et al, Nat., Biotechnol. 2008, 26, 127. From the above representative results, it can be seen that the compounds of the present invention have potent inhibitory activities on kinases including ALK, AXL, VEGFR2, PDGFR-α, PDGFR-β, c-KIT, Flt3, MEK1, MEK2, CSF1R, EPHA2, EPHA2, MKNK2, SRC, TIE2 and their mutants. Accordingly, the compounds of the present invention can be used for the treatment of diseases caused by abnormal activities of these kinases, e.g., cancer, psoriasis, hepatic cirrhosis, diabetes, diseases involving angiogenesis, eye diseases, immune system diseases, cardiovascular diseases, and so forth.

p38-alpha = p38-alpha (Homo sapiens (Human), UniProt Q16539)
Excerpt: as §1

[1] = molecular target: ABL1(T315I)-phosphorylated (Homo sapiens (Human), UniProt P00519, T315I)
Excerpt: as §1

CSF1R = CSF1R (Homo sapiens (Human), UniProt P07333)
Sequence of CSF1R (P07333 20-972): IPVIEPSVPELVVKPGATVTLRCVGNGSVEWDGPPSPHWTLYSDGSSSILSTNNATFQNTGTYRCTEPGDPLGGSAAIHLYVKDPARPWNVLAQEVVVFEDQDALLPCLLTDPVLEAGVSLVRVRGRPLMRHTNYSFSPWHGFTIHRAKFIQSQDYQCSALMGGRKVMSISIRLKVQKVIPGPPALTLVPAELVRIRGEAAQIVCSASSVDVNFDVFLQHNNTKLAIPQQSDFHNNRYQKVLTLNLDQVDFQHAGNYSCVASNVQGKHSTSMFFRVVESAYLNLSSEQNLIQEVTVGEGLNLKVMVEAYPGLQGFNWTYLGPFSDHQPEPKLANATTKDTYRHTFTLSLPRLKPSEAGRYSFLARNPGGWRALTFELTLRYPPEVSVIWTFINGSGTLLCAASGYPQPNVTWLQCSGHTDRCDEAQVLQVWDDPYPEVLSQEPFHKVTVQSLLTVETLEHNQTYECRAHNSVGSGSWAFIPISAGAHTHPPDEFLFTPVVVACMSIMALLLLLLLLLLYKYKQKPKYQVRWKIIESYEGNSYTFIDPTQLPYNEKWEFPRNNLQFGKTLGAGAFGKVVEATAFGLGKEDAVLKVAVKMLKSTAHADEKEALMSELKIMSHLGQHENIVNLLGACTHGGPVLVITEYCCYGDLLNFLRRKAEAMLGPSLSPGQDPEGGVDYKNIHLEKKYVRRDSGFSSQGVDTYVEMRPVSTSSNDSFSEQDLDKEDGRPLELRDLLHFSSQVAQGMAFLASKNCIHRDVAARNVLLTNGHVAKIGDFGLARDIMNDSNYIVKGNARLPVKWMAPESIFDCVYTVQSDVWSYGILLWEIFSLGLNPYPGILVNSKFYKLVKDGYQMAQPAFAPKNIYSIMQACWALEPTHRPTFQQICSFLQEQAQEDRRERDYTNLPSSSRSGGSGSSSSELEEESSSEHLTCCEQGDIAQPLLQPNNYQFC
Excerpt: as §1

[2] = molecular target: ABL1(E255K)-phosphorylated (Homo sapiens (Human), UniProt P00519, E255K)
Excerpt: as §1

RAF1 = RAF1 (Homo sapiens (Human), UniProt P04049)
Sequence of RAF1 (P04049 whole entry): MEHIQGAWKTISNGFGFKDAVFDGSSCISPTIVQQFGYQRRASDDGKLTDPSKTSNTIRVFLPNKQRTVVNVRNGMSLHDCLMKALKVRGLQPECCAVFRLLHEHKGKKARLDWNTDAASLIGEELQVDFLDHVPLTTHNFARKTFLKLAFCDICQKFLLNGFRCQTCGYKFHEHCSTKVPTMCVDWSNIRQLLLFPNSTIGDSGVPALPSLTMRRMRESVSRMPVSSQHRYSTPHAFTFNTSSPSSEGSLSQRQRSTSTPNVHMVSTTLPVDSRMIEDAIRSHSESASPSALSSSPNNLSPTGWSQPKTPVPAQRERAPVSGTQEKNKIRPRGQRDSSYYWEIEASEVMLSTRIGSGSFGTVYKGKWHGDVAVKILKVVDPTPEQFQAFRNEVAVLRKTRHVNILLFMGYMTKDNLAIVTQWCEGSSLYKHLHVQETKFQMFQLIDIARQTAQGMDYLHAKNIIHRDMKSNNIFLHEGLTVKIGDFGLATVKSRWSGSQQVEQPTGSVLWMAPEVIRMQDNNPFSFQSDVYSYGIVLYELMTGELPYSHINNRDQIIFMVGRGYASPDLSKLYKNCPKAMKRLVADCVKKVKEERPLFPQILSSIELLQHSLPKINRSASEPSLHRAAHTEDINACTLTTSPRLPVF
Excerpt: as §1

MAP3K4 = MAP3K4 (Homo sapiens (Human), UniProt Q9Y6R4)
Excerpt: as §1

TIE2 = TIE2 (Homo sapiens (Human), UniProt Q02763)
Excerpt: as §1

PLK1 = PLK1 (Homo sapiens (Human), UniProt P53350)
Sequence of PLK1 (P53350 whole entry): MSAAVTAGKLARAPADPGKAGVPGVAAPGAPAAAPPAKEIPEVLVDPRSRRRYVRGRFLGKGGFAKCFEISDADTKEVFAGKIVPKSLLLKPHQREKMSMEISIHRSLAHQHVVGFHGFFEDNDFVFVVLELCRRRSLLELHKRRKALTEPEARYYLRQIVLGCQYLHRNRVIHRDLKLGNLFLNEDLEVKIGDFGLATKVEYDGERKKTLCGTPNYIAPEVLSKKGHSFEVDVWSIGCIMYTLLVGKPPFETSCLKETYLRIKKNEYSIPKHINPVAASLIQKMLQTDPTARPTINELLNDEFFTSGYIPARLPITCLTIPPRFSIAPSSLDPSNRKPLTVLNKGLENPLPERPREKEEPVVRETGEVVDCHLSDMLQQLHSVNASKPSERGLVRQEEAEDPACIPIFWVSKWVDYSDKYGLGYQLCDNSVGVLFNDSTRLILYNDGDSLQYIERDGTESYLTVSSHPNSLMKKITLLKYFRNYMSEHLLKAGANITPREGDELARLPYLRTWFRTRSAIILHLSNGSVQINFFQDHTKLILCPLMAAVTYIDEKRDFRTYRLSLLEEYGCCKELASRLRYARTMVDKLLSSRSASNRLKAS
Excerpt: as §1

AKT2 = AKT2 (Homo sapiens (Human), UniProt P31751)
Sequence of AKT2 (P31751 whole entry): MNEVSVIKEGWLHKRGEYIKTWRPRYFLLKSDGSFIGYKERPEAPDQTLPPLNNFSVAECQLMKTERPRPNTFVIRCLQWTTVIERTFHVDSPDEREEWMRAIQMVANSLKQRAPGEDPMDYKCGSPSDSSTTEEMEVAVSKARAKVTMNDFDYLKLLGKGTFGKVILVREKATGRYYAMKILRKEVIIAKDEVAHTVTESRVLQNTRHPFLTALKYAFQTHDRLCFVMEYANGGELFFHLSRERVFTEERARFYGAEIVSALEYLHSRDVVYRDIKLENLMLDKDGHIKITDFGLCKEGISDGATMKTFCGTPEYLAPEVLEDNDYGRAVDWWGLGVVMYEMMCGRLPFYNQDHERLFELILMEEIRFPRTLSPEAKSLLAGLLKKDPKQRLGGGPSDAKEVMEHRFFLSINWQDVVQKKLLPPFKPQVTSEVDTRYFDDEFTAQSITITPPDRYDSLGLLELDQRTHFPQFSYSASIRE
Excerpt: as §1

IKK-alpha = IKK-alpha (Homo sapiens (Human), UniProt O15111)
Sequence of IKK-alpha (O15111 whole entry): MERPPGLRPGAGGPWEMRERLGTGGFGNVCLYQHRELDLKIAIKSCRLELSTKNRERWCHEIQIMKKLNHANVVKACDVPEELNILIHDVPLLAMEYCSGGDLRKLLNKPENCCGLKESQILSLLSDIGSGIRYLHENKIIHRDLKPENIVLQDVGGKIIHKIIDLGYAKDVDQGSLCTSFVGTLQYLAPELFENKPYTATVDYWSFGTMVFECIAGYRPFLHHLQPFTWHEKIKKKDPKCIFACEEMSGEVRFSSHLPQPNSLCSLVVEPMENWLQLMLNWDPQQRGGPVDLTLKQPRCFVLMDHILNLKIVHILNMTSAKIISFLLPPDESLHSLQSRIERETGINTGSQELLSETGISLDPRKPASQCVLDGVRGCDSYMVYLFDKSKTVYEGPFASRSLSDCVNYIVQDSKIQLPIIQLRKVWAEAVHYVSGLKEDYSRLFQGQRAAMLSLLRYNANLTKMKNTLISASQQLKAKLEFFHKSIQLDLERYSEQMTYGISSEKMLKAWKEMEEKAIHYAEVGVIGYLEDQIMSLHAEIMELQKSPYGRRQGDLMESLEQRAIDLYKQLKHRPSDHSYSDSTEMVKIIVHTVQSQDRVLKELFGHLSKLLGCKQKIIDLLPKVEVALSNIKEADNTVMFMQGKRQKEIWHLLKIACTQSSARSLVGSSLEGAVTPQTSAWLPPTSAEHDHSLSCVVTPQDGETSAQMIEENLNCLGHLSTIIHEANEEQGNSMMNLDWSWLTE
Excerpt: as §1

RET = RET (Homo sapiens (Human), UniProt P07949)
Excerpt: as §1

IKK-beta = IKK-beta (Homo sapiens (Human), UniProt O14920)
Excerpt: as §1

PAK1 = PAK1 (Homo sapiens (Human), UniProt Q13153)
Excerpt: as §1

[3] = molecular target: JAK3 (JH1domain-catalytic) (Homo sapiens (Human), UniProt P52333)
Excerpt: as §1

PDPK1 = PDPK1 (Homo sapiens (Human), UniProt O15530)
Sequence of PDPK1 (O15530 whole entry): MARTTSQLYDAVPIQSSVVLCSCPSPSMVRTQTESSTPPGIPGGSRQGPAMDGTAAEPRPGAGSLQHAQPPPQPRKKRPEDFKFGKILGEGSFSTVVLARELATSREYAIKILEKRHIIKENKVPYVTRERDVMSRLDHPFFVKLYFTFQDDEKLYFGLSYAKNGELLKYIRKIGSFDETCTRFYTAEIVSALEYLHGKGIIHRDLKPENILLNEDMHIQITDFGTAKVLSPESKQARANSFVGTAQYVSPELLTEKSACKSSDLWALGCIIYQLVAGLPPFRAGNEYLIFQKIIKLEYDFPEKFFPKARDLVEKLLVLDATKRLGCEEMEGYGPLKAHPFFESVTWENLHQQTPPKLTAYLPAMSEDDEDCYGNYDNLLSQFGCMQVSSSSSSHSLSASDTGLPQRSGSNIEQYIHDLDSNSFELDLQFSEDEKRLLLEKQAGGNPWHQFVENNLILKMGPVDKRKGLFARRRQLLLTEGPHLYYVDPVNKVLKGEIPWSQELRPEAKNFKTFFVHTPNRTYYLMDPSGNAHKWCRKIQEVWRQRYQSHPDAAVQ
Excerpt: as §1

VEGFR2 = VEGFR2 (Homo sapiens (Human), UniProt P35968)
Excerpt: as §1

PAK2 = PAK2 (Homo sapiens (Human), UniProt Q13177)
Excerpt: as §1

p38-beta = p38-beta (Homo sapiens (Human), UniProt Q15759)
Excerpt: as §1

MKNK2 = MKNK2 (Homo sapiens (Human), UniProt Q9HBH9)
Excerpt: as §1

GSK3B = GSK3B (Homo sapiens (Human), UniProt P49841)
Sequence of GSK3B (P49841 whole entry): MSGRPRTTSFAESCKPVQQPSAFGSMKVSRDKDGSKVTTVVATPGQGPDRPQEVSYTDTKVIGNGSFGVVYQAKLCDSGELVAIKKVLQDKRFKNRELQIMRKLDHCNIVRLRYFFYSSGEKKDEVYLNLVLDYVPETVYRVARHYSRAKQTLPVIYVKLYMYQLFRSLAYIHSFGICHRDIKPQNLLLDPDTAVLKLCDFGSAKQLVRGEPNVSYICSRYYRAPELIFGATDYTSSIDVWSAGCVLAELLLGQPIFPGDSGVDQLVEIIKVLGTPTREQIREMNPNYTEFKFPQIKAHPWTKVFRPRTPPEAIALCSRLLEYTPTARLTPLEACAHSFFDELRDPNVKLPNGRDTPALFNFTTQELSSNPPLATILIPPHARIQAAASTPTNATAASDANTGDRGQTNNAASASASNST
Excerpt: as §1

TGFBR1 = TGFBR1 (Homo sapiens (Human), UniProt P36897)
Sequence of TGFBR1 (P36897 34-503): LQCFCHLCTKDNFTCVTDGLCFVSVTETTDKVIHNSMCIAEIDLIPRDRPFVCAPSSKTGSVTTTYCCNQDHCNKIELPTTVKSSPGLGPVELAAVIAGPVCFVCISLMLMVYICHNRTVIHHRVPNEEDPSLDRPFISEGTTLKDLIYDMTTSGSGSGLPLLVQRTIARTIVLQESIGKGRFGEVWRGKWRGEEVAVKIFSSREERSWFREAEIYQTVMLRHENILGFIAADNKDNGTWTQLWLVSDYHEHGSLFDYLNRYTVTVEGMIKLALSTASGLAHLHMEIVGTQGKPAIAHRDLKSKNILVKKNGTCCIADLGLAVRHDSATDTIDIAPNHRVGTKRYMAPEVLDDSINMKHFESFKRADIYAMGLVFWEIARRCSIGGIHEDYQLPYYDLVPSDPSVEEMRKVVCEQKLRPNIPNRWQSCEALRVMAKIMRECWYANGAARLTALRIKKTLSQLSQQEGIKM
Excerpt: as §1

- % Ctrl@1000 nM (PDGFRB): 0 % Ctrl
- % Ctrl@1000 nM (p38-alpha): 43 % Ctrl
- % Ctrl@1000 nM [1]: 19 % Ctrl
- % Ctrl@1000 nM (CSF1R): 0 % Ctrl
- % Ctrl@1000 nM [2]: 7.8 % Ctrl
- % Ctrl@1000 nM (RAF1): 53 % Ctrl
- % Ctrl@1000 nM (MAP3K4): 100 % Ctrl
- % Ctrl@1000 nM (TIE2): 0.55 % Ctrl
- % Ctrl@1000 nM (PLK1): 100 % Ctrl
- % Ctrl@1000 nM (AKT2): 100 % Ctrl
- % Ctrl@1000 nM (IKK-alpha): 100 % Ctrl
- % Ctrl@1000 nM (RET): 0 % Ctrl
- % Ctrl@1000 nM (IKK-beta): 78 % Ctrl
- % Ctrl@1000 nM (PAK1): 66 % Ctrl
- % Ctrl@1000 nM [3]: 76 % Ctrl
- % Ctrl@1000 nM (PDPK1): 87 % Ctrl
- % Ctrl@1000 nM (VEGFR2): 1 % Ctrl
- % Ctrl@1000 nM (PAK2): 76 % Ctrl
- % Ctrl@1000 nM (p38-beta): 78 % Ctrl
- % Ctrl@1000 nM (MKNK2): 0.1 % Ctrl
- % Ctrl@1000 nM (GSK3B): 100 % Ctrl
- % Ctrl@1000 nM (TGFBR1): 85 % Ctrl
Structure (SMILES): COc1cc2c(Oc3ccc(NC(=O)C4(C(=O)Nc5ccc(F)cc5)CC4)cc3F)ccnc2cc1OCCCCCC(=O)NO [Example 13, N1′-[3-fluoro-4-[[7-[6-(hydroxyamino)-6-oxohexyloxy]-6-methoxy-4-quinolyl]oxy]phenyl]-N1-(4-fluorophenyl)cyclopropane-1,1-dicarboxamide]
